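Protocol summary: plate cells (96-well), add compound at 5 concentrations, incubate 48 h, interpolate endpoints linearly. Here, GI50 denotes the concentration required for 50% inhibition of growth.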 Calls of active or inactive are those of the source. Cut-off read from the data, not from the text of the source: active = GI50 up to about 1.1 µM and inactive = higher.
Key:
Assay in all cases: NCI anticancer screen, dose series, 48 h
[1] = system: A498
[2] = system: CAKI-1
[3] = system: COLO 205
[4] = system: DU-145
[5] = system: EKVX
[6] = system: HCT-15
[7] = system: HL-60
[8] = system: IGROV-1
[9] = system: KM12
[10] = system: M14
[11] = system: MDA-MB-231
[12] = system: MOLT-4
[13] = system: Malme-3M
[14] = system: NCI-H226
[15] = system: OVCAR-5
[16] = system: SF-268
[17] = system: SN12C
[18] = system: SNB-19
[19] = system: SNB-75
[20] = system: SR

| Structure (SMILES) | GI50 [1] | GI50 [2] | GI50 [3] | GI50 [4] | GI50 [5] | GI50 [6] [µM] | GI50 [7] | GI50 [8] | GI50 [9] | GI50 [10] | GI50 [11] | GI50 [12] | GI50 [13] | GI50 [14] | GI50 [15] | GI50 [16] | GI50 [17] | GI50 [18] | GI50 [19] | GI50 [20] |
| --- | --- | --- | --- | --- | --- | --- | --- | --- | --- | --- | --- | --- | --- | --- | --- | --- | --- | --- | --- | --- |
| COC(=O)C1CC23C=CCN4CC(C2C)C2(c5ccccc5NC12)C43 (stereo not given) | > 100 µM (inactive) | > 100 µM (inactive) | > 100 µM (inactive) | > 100 µM (inactive) | > 100 µM (inactive) | > 100 | 64 µM (inactive) | > 100 µM (inactive) | > 100 µM (inactive) | > 100 µM (inactive) | > 100 µM (inactive) | > 100 µM (inactive) | > 100 µM (inactive) | > 100 µM (inactive) | > 100 µM (inactive) | > 100 µM (inactive) | > 100 µM (inactive) | > 100 µM (inactive) | 87.7 µM (inactive) | > 100 µM (inactive) |
| N#Cc1ccc(/C=[N+](/C=c2ccc(=C=[N-])cc2)N(CCO)C2=NCCN2)cc1 | > 100 µM (inactive) | > 100 µM (inactive) | > 100 µM (inactive) | > 100 µM (inactive) | > 100 µM (inactive) | > 100 | > 100 µM (inactive) | > 100 µM (inactive) | > 100 µM (inactive) | > 100 µM (inactive) | > 100 µM (inactive) | > 100 µM (inactive) | > 100 µM (inactive) | > 100 µM (inactive) | > 100 µM (inactive) | > 100 µM (inactive) | > 100 µM (inactive) | > 100 µM (inactive) | > 100 µM (inactive) | > 100 µM (inactive) |
